Results: article PMC9406419, “OATD-02 Validates the Benefits of Pharmacological Inhibition of Arginase 1 and 2 in Cancer” (Cancers, 2022)
pIC50: −log10 of the molar value.

How the values were obtained:
[1] = system: intracellular arginase in human primary hepatocytes; assay: Liver arginase inhibition assay in human primary hepatocytes (urea in supernatant); assay type: cell-based; conditions: 24 h incubation, 5 mM L-arginine
K562 tumours = assay: K562 xenograft model in athymic nude mice; assay type: in vivo, mouse
Description: (§1) CT26 and K562 in vivo experiments were conducted at Molecure SA. All experimental procedures were approved by the 1st Local Ethics Committee in Warsaw (Poland). For the syngeneic CT26 model, 7–8-week old BALB/c females (n = 9–18 per group, BALB/cAnNCrl, Charles River Laboratories) were injected subcutaneously in the right flank with 5 × 10^5 CT26 cells. […] Anti-PD-L1 antibody (InVivoPlus anti-mouse PD-L1, clone 10F.9G2, BioXCell, lot 615416D1) was injected intraperitoneally at 2.5 mg/kg on days: 8, 10, 12, 14 and 16 post tumour cells inoculation. Control groups received vehicle (saline) or isotype antibody (InVivoPlus rat IgG2b, anti-KLH, BioXCell, lot 629816D1). For the xenograft K562 model, 7–8 week-old athymic nude mice (n = 8–11 per group, Crl:NU(NCr)-Foxn1^nu, Charles River Laboratories) or NK cell-deficient Fox Chase SCID Beige mice (n = 10–12 per group, CB17.Cg-Prkdc^scidLyst^bg-J/Crl, Charles River Laboratories) were injected subcutaneously in the right flank with 1 × 10^7 K562 cells. […] Tumour volume measured by a digital calliper (width × length × depth × π/6) was recorded three times per week. Animals were euthanized when tumours were necrotized or volume exceeded 2000 mm^3. Renca in vivo efficacy study was performed at Crown Biosciences Inc. (Taicang, China). […] Tumour volumes (length × width^2 × 0.5) were measured twice per week. […]

recombinant human ARG2 = target: T1, recombinant human ARG2 (Homo sapiens, UniProt P78540); assay: Recombinant arginase inhibition assay (colorimetric urea detection), ARG2; assay type: biochemical; conditions: recombinant human ARG2, 20 mM L-arginine, 37 °C, 1 h, pH 7.4
T1 construct: made in house; host or cells: E. coli
T1 sequence (P78540 23-354): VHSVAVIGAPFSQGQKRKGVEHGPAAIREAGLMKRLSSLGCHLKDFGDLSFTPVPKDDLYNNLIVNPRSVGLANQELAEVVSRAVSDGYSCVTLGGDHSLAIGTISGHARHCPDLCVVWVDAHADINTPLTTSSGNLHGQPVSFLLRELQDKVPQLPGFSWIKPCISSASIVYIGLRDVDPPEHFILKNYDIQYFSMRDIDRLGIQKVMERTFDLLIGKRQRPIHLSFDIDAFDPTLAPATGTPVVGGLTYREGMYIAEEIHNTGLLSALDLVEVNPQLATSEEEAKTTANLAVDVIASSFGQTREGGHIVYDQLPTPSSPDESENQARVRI
Description: Recombinant enzymes (ARG1 or ARG2) were produced at Molecure SA—biosynthesized in E. coli expression system, purified by fast protein liquid chromatography, and stored at −80 °C in the storage buffer (20 mM Tris pH 8.0, 100 mM NaCl, 10 mM DDT, 10% glycerol). The enzymatic reaction was carried out at 37 °C for 1 h in the assay buffer (100 mM sodium phosphate buffer, 130 mM NaCl, pH 7.4) with the addition of 1 mg/mL BSA in the presence of 200 µM MnCl2 (enzyme cofactor), 10 mM (for ARG1) or 20 mM (for ARG2) of L-arginine hydrochloride (enzyme substrate), and serial dilutions of the test compounds. The inhibition of the arginase activity was determined by colorimetric detection of produced urea, as previously described with minor changes. Briefly, 150 µL of freshly prepared developing reagent (2 mM o-phthaldialdehyde (OPA), 2 mM N-(1-naphthyl)ethylenediamine dihydrochloride (NED), 50 mM boric acid, 1 M sulfuric acid, 0.03% Brij-35) was added to each well, incubated for 20 min at RT, then the absorbance at 515 nm was measured. Normalized values were fitted to a four-parameter equation using GraphPad Prism and IC50 values were determined. […]

[2] = Tolerability in animal models; assay type: in vivo
CT26 tumours = assay: Syngeneic CT26 model, combination with epacadostat and anti-PD-L1 antibody; assay type: in vivo, mouse; conditions: suboptimal doses: OATD-02 50 mg/kg PO BID; epacadostat 30 mg/kg PO BID; anti-PD-L1 2.5 mg/kg IP days 8, 10, 12, 14, 16
Description: as §1

| SMILES | pIC50 ([1]; Hepatocyte) | final TGI, K562 tumor volumes, athymic nude mice (K562 tumours; 100 mg/kg PO BID (Figure 5 legend) from day 6, day 19 post-inoculation) [%] | pIC50 (recombinant human ARG2) | pIC50 [1] | safety and tolerability [2] | final TGI, K562 tumor volumes, athymic nude mice (K562 tumours; 50 mg/kg PO BID from day 6, day 19 post-inoculation) [%] | TGI, CT26 tumor growth inhibition - day 24 (CT26 tumours) [%] |
| --- | --- | --- | --- | --- | --- | --- | --- |
| C[C@H](N)C(=O)N1C[C@H](CCCB(O)O)[C@](N)(C(=O)O)C1 [ref. ARGi, numidargistat, reference compound] | 4.30 | 14 | 6.47 | – | – | – | – |
| CN(C)C[C@@H]1CC[C@@H](CCB(O)O)C[C@]1(N)C(=O)O [OATD-02] | – | – | 7.47 | 4.85 | safe and well tolerated | 49 | 33 |
